Test results: patent US20140242093A1, “METHODS AND COMPOSITIONS FOR MODULATING THE INNATE IMMUNE RESPONSE AND/OR MYOGENESIS IN A MAMMALIAN SUBJECT” (FRED HUTCHINSON CANCER RESEARCH CENTER, priority 2011, published 2014)

Test system: control human primary myoblasts
Experiment: Expression microarray of primary myoblasts transduced with lentivirus carrying DUX4-fl, DUX4-s or GFP
Protocol: Primary human myoblasts were collected and cultured as previously described (Snider et al., 2010). Primary myoblasts were maintained at or below 70% confluency for proliferation. For differentiation, cells were allowed to reach 95-100% confluency in growth medium. Once confluency was reached, the cells were changed to differentiation medium (F10 media supplemented with 1% horse serum, 10 μg/mL insulin, and 10 μg/mL transferrin, penicillin/streptomycin) and maintained for 4 days. Human RD cells were grown in DMEM in 10% bovine calf serum (Hyclone) and penicillin/streptomycin. The primary myoblasts were transduced with lentivirus carrying DUX-fl, DUX4- or GFP (MOI=15).
Expression microarrays were performed on the transduced cells at 24 hours after transduction as follows. […] Samples were analyzed by Illumina Human Whole Genome microarrays. Probe intensities were corrected, normalized, and summarized by the Lumi package of Bioconductor (Du et al., 2008). Differentially expressed genes were identified by the LIMMA package of Bioconductor (Wettenhall and Smyth, 2004). Gene set enrichment analysis (GSEA) was performed using the Bioconductor GOstats package (Falcon and Gentleman, 2007).

DUX4-fl: full-length DUX4 protein (SEQ ID NO:110), expressed from lentiviral or pCS2 vectors or in vitro translated
full_fc PRAMEF13 (log2 fc vs lenti-GFP, 24 h): 7.422 | full_fc PRAMEF15 (log2 fc vs lenti-GFP, 24 h): 7 | full_fc PRAMEF17 (log2 fc vs lenti-GFP, 24 h): 4.223 | full_fc PRAMEF20 (log2 fc vs lenti-GFP, 24 h): 4.795 | full_fc RFPL1 (log2 fc vs lenti-GFP, 24 h): 6.264 | full_fc RFPL1S (log2 fc vs lenti-GFP, 24 h): 8.396 | full_fc RFPL2 (log2 fc vs lenti-GFP, 24 h): 7.293 | full_fc RFPL3 (log2 fc vs lenti-GFP, 24 h): 8.144 | full_fc RFPL4A (log2 fc vs lenti-GFP, 24 h): 4.348 | full_fc RFPL4B (log2 fc vs lenti-GFP, 24 h): 8.34 | full_fc RN5S9 (log2 fc vs lenti-GFP, 24 h): 4.191 | full_fc SFRS2B (log2 fc vs lenti-GFP, 24 h): 4.215 | full_fc SLC34A2 (log2 fc vs lenti-GFP, 24 h): 5.514 | full_fc SPRYD5 (log2 fc vs lenti-GFP, 24 h): 8.045 | full_fc THOC4 (log2 fc vs lenti-GFP, 24 h): 4.035 | full_fc TPRX1 (log2 fc vs lenti-GFP, 24 h): 4.483 | full_fc TRIM43 (log2 fc vs lenti-GFP, 24 h): 5.806 | full_fc TRIM48 (log2 fc vs lenti-GFP, 24 h): 7.88 | full_fc TRIM49 (log2 fc vs lenti-GFP, 24 h): 6.551 | full_fc TRIM53 (log2 fc vs lenti-GFP, 24 h): 4.778 | full_fc TRIM64 (log2 fc vs lenti-GFP, 24 h): 4.943 | full_fc ZNF217 (log2 fc vs lenti-GFP, 24 h): 4.114 | full_fc ZNF296 (log2 fc vs lenti-GFP, 24 h): 5.536 | full_fc ZNF705A (log2 fc vs lenti-GFP, 24 h): 6.832 | full_fc ZSCAN4 (log2 fc vs lenti-GFP, 24 h): 8.322 | number of genes increased 32-fold or more (log 2fc≧5): 72 genes | Log2 Fc AMACR (vs lenti-GFP, 24 h): 2.7 log2 | Log2 Fc ARIH1 (vs lenti-GFP, 24 h): 2.2 log2 | Log2 Fc ARS2 (vs lenti-GFP, 24 h): 2.6 log2 | Log2 Fc CBARA1 (vs lenti-GFP, 24 h): 2.1 log2 | Log2 Fc CD24 (vs lenti-GFP, 24 h): 2.6 log2 | Log2 Fc CSAG3 (vs lenti-GFP, 24 h): 5.9 log2 | Log2 Fc CSE1L (vs lenti-GFP, 24 h): 2.9 log2 | Log2 Fc CWC15 (vs lenti-GFP, 24 h): 2.6 log2 | Log2 Fc CXADR (vs lenti-GFP, 24 h): 2.5 log2 | Log2 Fc CXCR4 (vs lenti-GFP, 24 h): 2.0 log2 | Log2 Fc DBR1 (vs lenti-GFP, 24 h): 3.4 log2 | Log2 Fc DEFB103B (vs lenti-GFP, 24 h): 6.4 log2 | Log2 Fc FBXO33 (vs lenti-GFP, 24 h): 3.2 log2 | Log2 Fc FGFR3 (vs lenti-GFP, 24 h): 3.1 log2 | Log2 Fc FLJ45337 (vs lenti-GFP, 24 h): 3.7 log2 | Log2 Fc GTF2F1 (vs lenti-GFP, 24 h): 3.2 log2 | Log2 Fc HNRNPCL1 (vs lenti-GFP, 24 h): 3.5 log2 | Log2 Fc HOXB2 (vs lenti-GFP, 24 h): 2.2 log2 | Log2 Fc HSPA2 (vs lenti-GFP, 24 h): 3.7 log2 | Log2 Fc ID2 (vs lenti-GFP, 24 h): 2.3 log2 | Log2 Fc IFRD1 (vs lenti-GFP, 24 h): 3.0 log2 | Log2 Fc JUP (vs lenti-GFP, 24 h): 3.2 log2 | Log2 Fc KHDC1L (vs lenti-GFP, 24 h): 8.0 log2 | Log2 Fc MBD3L2 (vs lenti-GFP, 24 h): 7.6 log2 | Log2 Fc MED26 (vs lenti-GFP, 24 h): 2.1 log2 | Log2 Fc MGC10997 (vs lenti-GFP, 24 h): 2.4 log2 | Log2 Fc PABPN1 (vs lenti-GFP, 24 h): 2.6 log2 | Log2 Fc PELI1 (vs lenti-GFP, 24 h): 2.9 log2 | Log2 Fc PNMA6B (vs lenti-GFP, 24 h): 3.6 log2 | Log2 Fc PRAMEF1 (vs lenti-GFP, 24 h): 8.1 log2 | Log2 Fc PVRL3 (vs lenti-GFP, 24 h): 2.2 log2 | Log2 Fc RMRP (vs lenti-GFP, 24 h): 2.3 log2 | Log2 Fc RNGTT (vs lenti-GFP, 24 h): 2.0 log2 | Log2 Fc RPPH1 (vs lenti-GFP, 24 h): 2.0 log2 | Log2 Fc RRN3 (vs lenti-GFP, 24 h): 2.1 log2 | Log2 Fc SFRS2B (vs lenti-GFP, 24 h): 4.2 log2 | Log2 Fc SFRS17A (vs lenti-GFP, 24 h): 2.5 log2 | Log2 Fc SIAH1 (vs lenti-GFP, 24 h): 3.7 log2 | Log2 Fc SLC2A14 (vs lenti-GFP, 24 h): 2.4 log2 | Log2 Fc SLC34A2 (vs lenti-GFP, 24 h): 5.5 log2 | Log2 Fc SNIP1 (vs lenti-GFP, 24 h): 2.1 log2 | Log2 Fc SON (vs lenti-GFP, 24 h): 2.1 log2 | Log2 Fc SPRYD5 (vs lenti-GFP, 24 h): 8.0 log2 | Log2 Fc SPTY2D1 (vs lenti-GFP, 24 h): 3.3 log2 | Log2 Fc TFIP11 (vs lenti-GFP, 24 h): 3.2 log2 | Log2 Fc THOC4 (vs lenti-GFP, 24 h): 4.0 log2 | Log2 Fc TPRX1 (vs lenti-GFP, 24 h): 4.5 log2 | Log2 Fc TRIM23 (vs lenti-GFP, 24 h): 2.2 log2 | Log2 Fc TRIM43 (vs lenti-GFP, 24 h): 5.8 log2 | Log2 Fc USP29 (vs lenti-GFP, 24 h): 2.6 log2 | Log2 Fc ZNF217 (vs lenti-GFP, 24 h): 4.1 log2 | Log2 Fc ZNF705A (vs lenti-GFP, 24 h): 6.8 log2 | Log2 Fc ZNHIT6 (vs lenti-GFP, 24 h): 3.5 log2 | Log2 Fc ZSCAN2 (vs lenti-GFP, 24 h): 2.2 log2 | Log2 Fc ZSCAN4 (vs lenti-GFP, 24 h): 8.3 log2
